{"source": "paper PMC12085399", "about": "“Quantitative in vitro-to-in vivo extrapolation of human adrenergic and trace amine-associated receptor 1 potencies of pre-workout supplement ingredients using physiologically based kinetic modelling-based reverse dosimetry” (Archives of Toxicology, 2025)", "key": {"in vitro": {"assay": "in vitro", "conditions": "human; for Papp B→A at 60 min, 10 µM: Caco-2, pH 7.4; for recovery at 60 min, 10 µM: after 60 min, mean ± SD", "protocol": "(§1) Caco-2 cells (ATCC, Manassas, VA, USA; passage 30–44) were cultured in DMEM (Gibco, New York, USA) containing 4.5 g/L d-glucose, 4 mM L-glutamine and supplemented with 10% FBS (Gibco, Grand Island, NY, USA), 1% minimal essential medium non-essential amino acids (Gibco, Paisley, UK), 100 units/mL penicillin and 100 µg/mL streptomycin (Gibco, Grand Island, NY, USA). Cells were seeded at a density of 4.0 × 10^4 cells/cm^2 on polyester transwell insert membranes (12 mm insert, 0.4 µm pore size; Corning incorporated, Kennebunk, ME, USA). Cells were maintained in a humidified incubator with 5% CO2 at 37 °C for 21 or 22 days in 0.5 mL and 1.5 mL medium in the apical and basolateral compartments, respectively. The medium was refreshed every two or three days and always one day before the permeability assay.\n(§2) On the day of the experiment, cells were washed twice with HBSS without phenol red (pH 7.4; Sigma-Aldrich, Steinheim, Germany) supplemented with 0.35 g/L sodium bicarbonate and 25 mM HEPES and they were equilibrated in this supplemented HBSS for 15 min in a humidified incubator with 5% CO2 at 37 °C. […] These stocks were diluted to a final concentration of 10 µM in pre-warmed supplemented HBSS (final DMSO level = 0.1%). After 15 min, the transepithelial electrical resistance (TEER) was measured with an Epithelial Voltohmmeter (World Precision Instruments, Sarasota, USA). Compound transport was studied in two directions: from the apical to the basolateral compartment (A-B) and from the basolateral to the apical compartment (B-A). For A-B experiments, 450 µL of the compound (10 µM) was added to the apical side and 1200 µL supplemented HBSS was added to the basolateral side. A sample of 50 µL was removed immediately from the apical compartment at time point zero. After 15 and 30 min, samples were taken from the basolateral compartment. Cells were kept in the incubator during the experiment. After 60 min, medium from both compartments was sampled, cells were washed twice with supplemented HBSS and were maintained in the incubator. After 15 min, the TEER was measured again to check for epithelial barrier damage due to compound exposure. After this, cells were lysed in RIPA buffer (Thermo Scientific, Rockford, IL, USA). For B-A experiments, 400 µL of supplemented HBSS was added to the apical side and 1250 µL of the compound (10 µM) was added to the basolateral side. A sample of 50 µL was removed immediately from the basolateral compartment at time point zero. After 15 and 30 min, samples were taken from the apical compartment. After 60 min, samples were taken similarly as in A-B experiments. The sampled medium and cell lysates were stored at −20 °C till the day of the liquid chromatography–mass spectrometry (LC–MS/MS) analysis. All experiments were run in duplicate. The compounds were quantified with LC–MS/MS as described in Sect. \"LC–MS/MS analysis\".\n(§3) Before chemical analysis, cell lysates were two times diluted in ice-cold methanol and centrifuged at 15,000 rpm at 4 °C. The supernatant was then injected into the LC–MS/MS system. Sampled buffer from donor compartments was diluted 40 times in buffer and samples from the receiver compartment were analysed undiluted. Standards were prepared in the same assay buffer to quantify the amount of compound in medium samples. For quantification of compounds in cell lysates, standards were prepared in a mixture of 50% RIPA buffer and 50% methanol.\n(§4) All data are presented as mean ± SD.\n(§5) For the < Tsi > a value of 3.32 h was used (Grandoni et al. [2019])."}, "ADRα1D": {"system": "ADRα1D", "assay": "PBK modelling-based reverse dosimetry of in vitro EC50 to ED50, ADRα1D", "conditions": "predicted human oral ED50 from in vitro EC50 (Pinckaers et al. [2024]) and modelled Cmax plasma venous", "from_the_text": "(§6) The in vitro effect concentrations (EC50), for activation of the α1A, α1B, α1D, α2A, α2B, β1 and β2 ADR activation and the activation of TAAR1, were obtained from our previous study (Pinckaers et al. [2024])."}, "TAAR1": {"system": "TAAR1", "assay": "PBK modelling-based reverse dosimetry of in vitro EC50 to ED50, TAAR1", "design": "species or system human", "conditions": "predicted human oral ED50 from in vitro EC50 (Pinckaers et al. [2024]) and modelled Cmax plasma venous", "from_the_text": "as §6"}, "ADRα2A": {"system": "ADRα2A", "assay": "PBK modelling-based reverse dosimetry of in vitro EC50 to ED50, ADRα2A", "conditions": "predicted human oral ED50 from in vitro EC50 (Pinckaers et al. [2024]) and modelled Cmax plasma venous", "from_the_text": "as §6"}, "Caco-2 cells": {"system": "Caco-2 cells", "assay": "in vitro", "conditions": "scaled from corrected Caco-2 Papp A-B, human", "protocol": "as §1, §2, §3, §4, §5"}, "ADRα1B": {"system": "ADRα1B", "assay": "PBK modelling-based reverse dosimetry of in vitro EC50 to ED50, ADRα1B", "conditions": "predicted human oral ED50 from in vitro EC50 (Pinckaers et al. [2024]) and modelled Cmax plasma venous", "from_the_text": "as §6"}, "[1]": {"assay": "In vitro hepatic clearance by human liver S9 (compound depletion)", "assay_type": "in vitro ADME", "protocol": "In vitro intrinsic hepatic clearance (CLint) values of the phenethylamine analogues were determined in experiments with pooled human liver S9 (HLS9; Corning, Woburn, MA, USA and Gibco, USA), by measuring the rate of compound depletion. Stocks of 1 mM PEA compounds were prepared in DMSO and stocks of 10 mg/mL alamethicin were prepared in methanol. The final incubation mixtures consisted of 1 µM of PEA compound (0.1% DMSO) in 100 mM potassium phosphate buffer with 5 mM magnesium chloride (pH 7.4) supplemented with 0.025 mg/mL alamethicin (0.25% methanol) and 0.1–2 mg/mL HLS9. […] Incubation mixtures were first pre-incubated at 37 °C in a shaking incubator at 300 rpm for 5 min. After 5 min, the reaction was initiated by adding a co-factor mix in supplemented buffer with final concentrations of 3 mM nicotinamide adenine dinucleotide phosphate (NADPH; for oxidation, reduction and hydrolysis), 5 mM uridine diphosphate glucuronic acid (UDPGA; for glucuronidation), 0.2 mM adenosine 3’-phosphate 5’-phosphosulfate lithium salt hydrate (PAPS; for sulfation) and 0.2 mM S-(5’-Adenosyl)-L-methionine p-toluenesulfonate salt (SAM; for methylation). The final incubation volume was 100 µL and incubations were performed in 1.5 mL Safe-Lock Eppendorf tubes (Eppendorf) in a shaking incubator (300 rpm) at 37 °C (Eppendorf Thermomixer). Incubations were terminated by adding 100 µL ice-cold acetonitrile after, 0, 2.5, 5, 10, 20, 40 and 60 min. Then, samples were vortexed, put on ice and stored at -20 °C until the day of the LC–MS/MS analysis. Controls of incubation mixtures without HLS9 or mixtures without co-factors were also included. Two independent experiments, both in duplicate, were performed on different days. On the day of the LC–MS/MS analysis, samples were thawed and centrifuged at 15,000 rpm for 10 min. The supernatant was collected in glass insert vials for LC injection (BGB Analytik, Harderwijk, The Netherlands). Details on the methods of the LC–MS/MS analysis are described in Sect. \"LC–MS/MS analysis\". After determining the PEA (analogue) amount at the different time points, the CLint was calculated. The natural logarithm of compound concentrations was plotted against time and the slope of this curve represented the elimination rate constant k (in 1/min). The half-life (t1/2 in minutes) was calculated by: ln (2)/k (in 1/min). The volume of incubation (V) in µL/mg protein was determined by: 1000 / HLS9 concentration (in mg/mL). Finally, CLint could be calculated by: CLintμL/min/mg protein=VμL/mg protein∗ln2/t1/2min.\nThe fraction unbound in these in vitro liver clearance incubations was calculated with the method of (Hallifax and Houston [2006]) in which unspecific binding in HLS9 incubations was assumed to be the same as in liver microsomal incubations. The in vitro obtained HLS9 CLint values were corrected for protein binding in the HLS9 incubation and were scaled to a whole liver by using a scaling factor of 121 mg HLS9/g liver (Houston and Galetin [2008])."}, "ADRβ2": {"system": "ADRβ2", "assay": "PBK modelling-based reverse dosimetry of in vitro EC50 to ED50, ADRβ2", "conditions": "predicted human oral ED50 from in vitro EC50 (Pinckaers et al. [2024]) and modelled Cmax plasma venous", "from_the_text": "as §6"}, "ADRα1A": {"system": "ADRα1A", "assay": "PBK modelling-based reverse dosimetry of in vitro EC50 to ED50, ADRα1A", "conditions": "predicted human oral ED50 from in vitro EC50 (Pinckaers et al. [2024]) and modelled Cmax plasma venous", "from_the_text": "as §6"}, "[2]": {"conditions": "Caco-2, pH 7.4, Papp A-B, Caco-2, apical to basolateral, 10 µM, HBSS pH 7.4, mean ± SD, duplicate"}}, "note": "Read-outs that look alike come from different tables or passages of the source.", "data": [{"smiles": "COCCc1ccc(OCC(O)CNC(C)C)cc1", "note": "(centres unmarked) [Metoprolol, metoprolol, reference compound]", "values": [{"measurement": "Papp B→A at 60 min, 10 µM", "setting": "in vitro", "result": "9.25 ± 0.17", "unit": "×10⁻⁶ cm/s"}, {"measurement": "Papp A→B at 60 min, 10 µM", "setting": "in vitro; [2]", "result": "11.2 ± 0.197", "unit": "×10⁻⁶ cm/s"}]}, {"smiles": "NCC(O)c1ccc(O)cc1", "note": "(centres unmarked) [p-Octopamine, octopamine]", "values": [{"measurement": "ADRα1D ED50", "setting": "ADRα1D", "result": 1.72, "unit": "mg/kg bw"}, {"measurement": "TAAR1 ED50", "setting": "TAAR1", "result": 65.8, "unit": "mg/kg bw"}, {"measurement": "ADRα2A ED50", "setting": "ADRα2A", "result": "– (compounds with a dash (-) did not activate the receptors in vitro at concentrations ≤ 300 µM)"}, {"measurement": "fa (fraction absorbed)", "setting": "Caco-2 cells", "result": 0.947}, {"measurement": "ka (absorption rate constant)", "setting": "Caco-2 cells", "result": 0.395, "unit": "h⁻¹"}, {"measurement": "Papp B→A at 60 min, 10 µM", "setting": "in vitro", "result": "0.117 ± 0.0171", "unit": "×10⁻⁶ cm/s"}, {"measurement": "Papp A→B at 60 min, 10 µM", "setting": "in vitro; Caco-2, pH 7.4, Papp A-B corrected, corrected for the difference between Papp A-B of metoprolol in this study and in literature", "result": 0.584, "unit": "×10⁻⁶ cm/s"}, {"measurement": "Papp A→B at 60 min, 10 µM", "setting": "in vitro; [2]", "result": "0.164 ± 0.0701", "unit": "×10⁻⁶ cm/s"}, {"measurement": "recovery at 60 min, 10 µM", "setting": "in vitro; Caco-2, pH 7.4, Recovery (A-B), Caco-2, A-B experiments", "result": "98.9 ± 1.77", "unit": "%"}, {"measurement": "recovery at 60 min, 10 µM", "setting": "in vitro; Caco-2, pH 7.4, Recovery (B-A), Caco-2, B-A experiments", "result": "109 ± 15", "unit": "%"}, {"measurement": "ADRα1B ED50", "setting": "ADRα1B", "result": 5.58, "unit": "mg/kg bw"}, {"measurement": "Predicted intrinsic hepatic metabolic clearance CLmet", "setting": "[1]; CLint,u scaled to a whole liver, 121 mg HLS9/g liver, human", "result": 75.4, "unit": "L/h"}, {"measurement": "metabolism in incubations without co-factor mix", "setting": "[1]; HLS9 without co-factor mix", "result": "metabolized in incubations without co-factor mix"}, {"measurement": "k el at 1 µM", "setting": "[1]; human, pH 7.4", "result": 0.000203, "unit": "s⁻¹"}, {"measurement": "microsomal CLint at 1 µM", "setting": "[1]; human, s9, pH 7.4, CLint app corrected for unspecific protein (HLS9) binding, read-out: In vitro CLint,u", "result": 7.06, "unit": "µL/min/mg"}, {"measurement": "microsomal CLint at 1 µM", "setting": "[1]; human, s9, pH 7.4, human liver S9 with co-factor mix (NADPH, UDPGA, PAPS, SAM), 1 µM, read-out: In vitro CLint app", "result": 6.05, "unit": "µL/min/mg"}, {"measurement": "ADRβ2 ED50", "setting": "ADRβ2", "result": "– (compounds with a dash (-) did not activate the receptors in vitro at concentrations ≤ 300 µM)"}, {"measurement": "ADRα1A ED50", "setting": "ADRα1A", "result": 15.7, "unit": "mg/kg bw"}]}]}
